# Active and inactive are the calls of the source. How the calls were made is not given here.
# Molecular target: Serine/threonine-protein kinase PLK1 (Homo sapiens) (UniProt P53350)
# Assay: Plk1 polo box domain binding inhibitors, dose response, biochemical, fluorescence polarization (AID 877)
# Conditions: Plk1 PBD phosphopeptide binding
# Chain of Serine/threonine-protein kinase PLK1 (Homo sapiens) (P53350 whole entry, looked up, the tested form may be a part): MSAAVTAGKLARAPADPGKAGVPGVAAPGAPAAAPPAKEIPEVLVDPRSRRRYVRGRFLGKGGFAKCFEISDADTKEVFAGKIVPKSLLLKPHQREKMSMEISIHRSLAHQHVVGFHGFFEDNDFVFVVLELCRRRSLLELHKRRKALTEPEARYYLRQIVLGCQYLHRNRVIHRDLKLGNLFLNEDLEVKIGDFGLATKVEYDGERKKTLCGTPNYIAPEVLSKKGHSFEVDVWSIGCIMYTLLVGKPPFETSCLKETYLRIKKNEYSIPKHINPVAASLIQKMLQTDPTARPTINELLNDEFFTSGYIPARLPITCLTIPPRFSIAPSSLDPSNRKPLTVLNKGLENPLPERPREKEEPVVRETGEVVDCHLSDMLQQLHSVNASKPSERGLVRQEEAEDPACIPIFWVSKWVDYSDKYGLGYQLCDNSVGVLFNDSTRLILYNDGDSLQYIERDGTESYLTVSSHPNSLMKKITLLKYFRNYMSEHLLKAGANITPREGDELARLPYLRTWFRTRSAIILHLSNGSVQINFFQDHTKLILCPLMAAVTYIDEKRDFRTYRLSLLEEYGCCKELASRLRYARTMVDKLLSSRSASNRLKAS
row,SMILES,IC50
1,CCC(Sc1nc2n[nH]c(C)c2c(=N)n1-c1cccc(Cl)c1)C(=O)NCCOC (stereo not drawn),> 50 µM (inactive)
2,O=C1C(C2=C(O)c3ccccc3C2=O)=Nc2ccccc21,> 50 µM (inactive)
3,O=C(O)COc1ccc(Br)cc1/C=N/O,> 50 µM (inactive)

# Source: PubChem BioAssay AID877 (University of Pittsburgh Molecular Library Screening Center, 2007)
